# Test results: patent US20260374754A1, “N-((ISOQUINOLIN-6-YL)METHYL)-1H-PYRAZOLE-4-CARBOXAMIDE DERIVATIVES AS PLASMA KALLIKREIN INHIBITORS FOR THE TREATMENT OF HEREDITARY ANGIODEMA” (Takeda Pharmaceutical Company Limited, priority 2022, published 2026)
# Structures can show the parent of a compound that is named as a salt.
# Biological target: human activated kallikrein enzyme (Homo sapiens, UniProt P03952)
# Test: Inhibition of human activated plasma kallikrein, fluorogenic PFR-AMC substrate, 500 pM enzyme format
# Format: biochemical
# Settings: 500 pM activated kallikrein; 300 μM PFR-AMC; 30 min preincubation; 10 min room temperature; pH 7.5; read-out: Primary Dose Response Assay: Average EC50
# Outline: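 500 pM activated kallikrein preincubated 30 min at room temperature with inhibitors in pH 7.5 Tris/EDTA/NaCl buffer with PEG-400 and Triton X-100. Reaction started with 300 μM PFR-AMC, run 10 min at room temperature; AMC fluorescence read at ex 380/em 460 nm.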
# Chain of human activated kallikrein enzyme (P03952 391-638 limits assumed): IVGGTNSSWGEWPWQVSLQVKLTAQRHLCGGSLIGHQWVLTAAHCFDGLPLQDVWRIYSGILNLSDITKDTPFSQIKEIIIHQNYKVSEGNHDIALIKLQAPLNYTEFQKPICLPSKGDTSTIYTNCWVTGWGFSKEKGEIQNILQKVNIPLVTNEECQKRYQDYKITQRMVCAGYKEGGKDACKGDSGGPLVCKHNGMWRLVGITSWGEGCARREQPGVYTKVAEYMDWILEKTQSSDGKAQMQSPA
# Chain of human activated kallikrein enzyme (P03952 20-390 partner limits assumed): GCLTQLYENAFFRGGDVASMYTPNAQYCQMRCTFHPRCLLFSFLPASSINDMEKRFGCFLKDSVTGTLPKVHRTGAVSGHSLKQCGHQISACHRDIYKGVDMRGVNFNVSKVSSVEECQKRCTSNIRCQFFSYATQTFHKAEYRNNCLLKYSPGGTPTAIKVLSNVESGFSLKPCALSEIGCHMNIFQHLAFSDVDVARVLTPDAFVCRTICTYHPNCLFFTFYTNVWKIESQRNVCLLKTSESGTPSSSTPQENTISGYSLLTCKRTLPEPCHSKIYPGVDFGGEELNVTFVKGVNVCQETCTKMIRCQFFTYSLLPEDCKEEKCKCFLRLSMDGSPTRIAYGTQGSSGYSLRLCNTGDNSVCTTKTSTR
row,SMILES,EC50 [nM]
1,Cc1cc2c(N)nccc2c(C)c1CNC(=O)c1ccnc(Cc2ccc(Cn3cccn3)cc2)c1 [Example 183],< 1
2,"Cc1cc2c(N)nccc2c(C)c1CNC(=O)c1cnn(Cc2ccc(CC(=O)N3CC4CC4(C(=O)O)C3)cc2)c1 (centres unmarked) [Example 216, 3-(2-(4-((4-(((1-amino-5,7-dimethylisoquinolin-6-yl)methyl)carbamoyl)-1H-pyrazol-1-yl)methyl)phenyl)acetyl)-3-azabicyclo[3.1.0]hexane-1-carboxylic acid]",10 to 100
3,"Cc1cc2c(N)nccc2c(C)c1CNc1cc2c(cn1)cnn2Cc1ccc(Cn2cccn2)cc1 [Example I-458, 6-(((1-(4-((1H-pyrazol-1-yl)methyl)benzyl)-1H-pyrazolo[4,3-c]pyridin-6-yl)amino)methyl)-5,7-dimethylisoquinolin-1-amine]",1 to 10
4,"Cc1cc(CNc2cc(NCc3c(C)cc4c(N)nccc4c3C)ncn2)cc(C)c1Cc1ccccn1 [Example 368, N^4-((1-amino-5,7-dimethylisoquinolin-6-yl)methyl)-N^6-(3,5-dimethyl-4-(pyridin-2-ylmethyl)benzyl)pyrimidine-4,6-diamine]",< 1
5,"Cc1cc2c(N)nccc2c(C)c1CNc1cc(NCc2ccccc2)cnn1 [Example 448, N^3-((1-amino-5,7-dimethylisoquinolin-6-yl)methyl)-N5-benzylpyridazine-3,5-diamine]",100 to 1000
6,"Cc1cc2c(N)nccc2c(C)c1CNC(=O)c1cnn(Cc2ccc3ncc(O)cc3c2)c1 [Example 164, N-((1-amino-5,7-dimethylisoquinolin-6-yl)methyl)-1-((3-hydroxyquinolin-6-yl)methyl)-1H-pyrazole-4-carboxamide]",1 to 10
7,"Cc1cc2c(N)nccc2c(C)c1CNc1cc(NCc2ccc3nccc(C)c3c2)ncn1 [Example 324, N^4-((1-amino-5,7-dimethylisoquinolin-6-yl)methyl)-N^6-((4-methylquinolin-6-yl)methyl)pyrimidine-4,6-diamine]",1 to 10
8,"Cc1cc(CNc2cc(NCc3c(C)cc4c(N)nccc4c3C)ncn2)cc(C)c1Cn1cccn1 [Example 367, N^4-(4-((1H-pyrazol-1-yl)methyl)-3,5-dimethylbenzyl)-N^6-((1-amino-5,7-dimethylisoquinolin-6-yl)methyl)pyrimidine-4,6-diamine]",< 1
9,"CNC(=O)Cc1ccc(Cn2cc(C(=O)NCc3c(C)cc4c(N)nccc4c3C)cn2)cc1 [Example 230, N-((1-amino-5,7-dimethylisoquinolin-6-y1)methy1)-1-(4-(2-(methylamino)-2-oxoethyl)benzyl)-1H-pyrazole-4-carboxamide]",< 1
10,"Cc1ccc(Cn2cc(C(=O)NCc3c(C)cc4c(N)nccc4c3C)cn2)cc1 [Example 35, N-((1-amino-5,7-dimethylisoquinolin-6-yl)methyl)-1-(4-methylbenzyl)-1H-pyrazole-4-carboxamide]",10 to 100
11,"Cc1cc2c(N)nccc2c(C)c1CNc1cc(NCc2ccc3c(-c4ccccn4)cccc3c2)ncn1 [Example 241, N4-((1-amino-5,7-dimethylisoquinolin-6-yl)methyl)-N6-((5-(pyridin-2-yl)naphthalen-2-yl)methyl)pyrimidine-4,6-diamine]",1 to 10
12,"Cc1cc2c(N)nccc2c(C)c1CNc1ccc2ncc(C(O)c3ccc4ccccc4c3)n2c1 (centres unmarked) [Example 521, (6-(((1-amino-5,7-dimethylisoquinolin-6-yl)methyl)amino)imidazo[1,2-a]pyridin-3-yl)(naphthalen-2-yl)methanol]",> 1000
13,"Cc1cc2c(N)nccc2c(C)c1CNc1cc(OCc2ccc3ncccc3c2)cnn1 [Example 409, 5,7-dimethyl-6-(((5-(quinolin-6-ylmethoxy)pyridazin-3-yl)amino)methyl)isoquinolin-1-amine]",1 to 10
14,"Cc1ccc(Cn2cc(C(=O)NCc3c(C)cc4c(N)nccc4c3C)cn2)cc1Cl [Example 96, N-((1-amino-5,7-dimethylisoquinolin-6-yl)methyl)-1-(3-chloro-4-methylbenzyl)-1H-pyrazole-4-carboxamide]",1 to 10
15,"Cc1cc2c(N)nccc2c(C)c1CNc1cc(OCc2cn3cc(C4CC4)cc(-n4c(C)nnc4C)c3n2)ncn1 [Example 257, 6-(((6-((6-cyclopropyl-8-(3,5-dimethyl-4H-1,2,4-triazol-4-yl)imidazo[1,2-a]pyridin-2-yl)methoxy)pyrimidin-4-yl)amino)methyl)-5,7-dimethylisoquinolin-1-amine]",1 to 10
16,"Cc1cc2c(N)nccc2c(C)c1CNc1cc(NCc2ccc(Cn3cccn3)c(C(F)(F)F)c2)ncn1 [Example 383, N^4-(4-((1H-pyrazol-1-yl)methyl)-3-(trifluoromethyl)benzyl)-N^6-((1-amino-5,7-dimethylisoquinolin-6-yl)methyl)pyrimidine-4,5-diamine]",< 1

row,SMILES,EC50 [nM]
1,"Cc1cc2c(N)nccc2c(C)c1CNC(=O)c1cnn(Cc2cn3cc(Br)c(Cl)cc3n2)c1 [Example 149, N-((1-amino-5,7-dimethylisoquinolin-6-yl)methyl)-1-((6-bromo-7-chloroimidazo[1,2-a]pyridin-2-yl)methyl)-1H-pyrazole-4-carboxamide]",< 1
2,"Cc1cc2c(N)nccc2c(C)c1CNc1nccc(OCc2cn3cc(C4CC4)ccc3n2)n1 [Example 492, 6-(((4-((6-cyclopropylimidazo[1,2-a]pyridin-2-yl)methoxy)pyrimidin-2-yl)amino)methyl)-5,7-dimethylisoquinolin-1-amine]",1 to 10
3,"Cc1cc2c(N)nccc2c(C)c1CNc1cc2nn(Cc3cn4cc(C5CC5)ccc4n3)cc2cn1 [Example 269, 6-(((2-((6-cyclopropylimidazo[1,2-a]pyridin-2-yl)methyl)-2H-pyrazolo[4,3-c]pyridin-6-yl)amino)methyl)-5,7-dimethylisoquinolin-1-amine]",10 to 100
4,"Cc1cc2c(N)nccc2c(C)c1CNc1cc(N(C)Cc2cnc3ccccc3c2)ncn1 [Example 316, N^4-((1-amino-5,7-dimethylisoquinolin-6-yl)methyl)-N^6-methyl-N^6-(quinolin-3-ylmethyl)pyrimidine-4,6-diamine]",10 to 100
5,"Cc1cc2c(N)nccc2c(C)c1CNC(=O)c1cnn(Cc2ccc(CC(=O)N3CC4CC4C3)nc2)c1 (centres unmarked) [Example 90, 1-((6-(2-(3-azabicyclo[3.1.0]hexan-3-yl)-2-oxoethyl)pyridin-3-yl)methyl)-N-((1-amino-5,7-dimethylisoquinolin-6-yl)methyl)-1H-pyrazole-4-carboxamide]",< 1
6,"CCC(c1ccc(CNc2cc(NCc3c(C)cc4c(N)nccc4c3C)ncn2)cc1)n1cccn1 (centres unmarked) [Example I-484, N^4-(4-(1-(1H-pyrazol-1-yl)propyl)benzyl)-N^6-((1-amino-5,7-dimethylisoquinolin-6-yl)methyl)pyrimidine-4,6-diamine]",< 1
7,"Cc1ccc2ncc(COc3cc(NCc4c(C)cc5c(N)nccc5c4C)ncn3)cc2c1 [Example 372, 5,7-dimethyl-6-(((6-((6-methylquinolin-3-yl)methoxy)pyrimidin-4-yl)amino)methyl)isoquinolin-1-amine formic acid salt]",1 to 10
8,"Cc1cc2c(N)nccc2c(C)c1CNC(=O)c1cnn(Cc2cn3c(C)cccc3n2)c1 [Example 105, N-((1-amino-5,7-dimethylisoquinolin-6-yl)methyl)-1-((5-methylimidazo[1,2-a]pyridin-2-yl)methyl)-1H-pyrazole-4-carboxamide]",< 1
9,"Cc1cnn(Cc2ccc(Cn3cc(C(=O)NCc4c(C)cc5c(N)nccc5c4C)c(C(F)(F)F)n3)cc2)c1 [Example 184, N-((1-amino-5,7-dimethylisoquinolin-6-yl)methyl)-1-(4-((4-methyl-1H-pyrazol-1-yl)methyl)benzyl)-3-(trifluoromethyl)-1H-pyrazole-4-carboxamide]",< 1
10,"Cc1ccc2cc(COc3cnnc(NCc4c(C)cc5c(N)nccc5c4C)c3)ccc2n1 [Example 412, 5,7-dimethyl-6-(((5-((2-methylquinolin-6-yl)methoxy)pyridazin-3-yl)amino)methyl)isoquinolin-1-amine]",< 1
11,"Cc1cc2c(N)nccc2c(C)c1CNC(=O)c1cnn(Cc2cn3c(C)c(Cl)ccc3n2)c1 [Example 106, N-((1-amino-5,7-dimethylisoquinolin-6-yl)methyl)-1-((6-chloro-5-methylimidazo[1,2-a]pyridin-2-yl)methyl)-1H-pyrazole-4-carboxamide]",< 1
12,"Cc1cc2c(N)nccc2c(C)c1CNC(=O)c1cnn(Cc2cc3cc(F)ccc3o2)c1 [Example 57, N-((1-amino-5,7-dimethylisoquinolin-6-yl)methyl)-1-((5-fluorobenzofuran-2-yl)methyl)-1H-pyrazole-4-carboxamide]",10 to 100
13,"CCOC(=O)Nc1nccc2c(C)c(CNc3cc(N(Cc4ccc(Cn5ccccc5=O)cc4)C(=O)OCC)ncn3)c(C)cc12 [Example I-481, ethyl (6-(((1-((ethoxycarbonyl)amino)-5,7-dimethylisoquinolin-6-yl)methyl)amino)pyrimidin-4-yl)(4-((2-oxopyridin-1(2H)-yl)methyl)benzyl)carbamate]",> 1000
14,"Cc1cc2c(N)nccc2c(C)c1CNC(=O)c1cnn(Cc2cnc(-c3ccccc3)nc2)c1 [Example 195, N-((1-amino-5,7-dimethylisoquinolin-6-yl)methyl)-1-((2-phenylpyrimidin-5-yl)methyl)-1H-pyrazole-4-carboxamide]",1 to 10
15,"COc1ccc2cc(Cn3cc(C(=O)NCc4c(C)cc5c(N)nccc5c4C)cn3)cnc2c1 [Example 111, N-((1-amino-5,7-dimethylisoquinolin-6-yl)methyl)-1-((7-methoxyquinolin-3-yl)methyl)-1H-pyrazole-4-carboxamide]",< 1
16,"Cc1cc2c(N)nccc2c(C)c1CNc1cc(NCc2ccc(Cc3ncnn3C)cc2)ncn1 [Example 342, N^4-((1-amino-5,7-dimethylisoquinolin-6-yl)methyl)-N^6-(4-((1-methyl-1H-1,2,4-triazol-5-yl)methyl)benzyl)pyrimidine-4,6-diamine]",< 1
